Results taken from PubChem BioAssay (NCI).
“And” between values parts separate entries of the source, which are not always exact repeats. Equal values may be shown once.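 Dose response: 5 concentrations. Exposure: 48 h. Format: 96-well plates. Endpoint: linear interpolation; highest concentration if not reached. At the GI50, growth is halved. At the TGI there is no net growth.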

How the values were obtained:
Test in all cases: DTP human tumour cell line panel, 48 h
SK-OV-3 ovarian = test system: SK-OV-3 ovarian
SF-268 CNS = test system: SF-268 CNS
HCC-2998 colon = test system: HCC-2998 colon
SK-MEL-2 melanoma = test system: SK-MEL-2 melanoma
OVCAR-3 ovarian = test system: OVCAR-3 ovarian
UACC-257 melanoma = test system: UACC-257 melanoma
TK-10 renal = test system: TK-10 renal
DMS 114 small cell lung = test system: DMS 114 small cell lung
IGROV1 ovarian = test system: IGROV1 ovarian
UO-31 renal = test system: UO-31 renal

Row | Compound | TGI (SK-OV-3 ovarian) | TGI (SF-268 CNS) | TGI (HCC-2998 colon) | TGI (SK-MEL-2 melanoma) | TGI (OVCAR-3 ovarian) | TGI (UACC-257 melanoma) | TGI (TK-10 renal) | TGI (DMS 114 small cell lung) | TGI (IGROV1 ovarian) | TGI (UO-31 renal) | GI50 (SK-OV-3 ovarian) | GI50 (SF-268 CNS) | GI50 (HCC-2998 colon) | GI50 (SK-MEL-2 melanoma) | GI50 (OVCAR-3 ovarian) | GI50 (UACC-257 melanoma) | GI50 (DMS 114 small cell lung) | GI50 (IGROV1 ovarian) | GI50 (UO-31 renal) | GI50 (TK-10 renal)
1 | c1ccc2c(c1)nc(NC1CCCC1)c1[nH]c(C3CCCC3)nc12 | > 62.5 µM | 47 µM | 17.6 µM | 19.1 µM | 27.9 µM | 11.1 µM | > 93.3 µM | 35.4 µM | 46 µM | 63 µM |  |  |  |  |  |  |  |  |  | 
2 | NCCNc1cccc2ccccc12 | > 100 µM | > 100 µM | > 100 µM | > 100 µM | > 100 µM | > 100 µM | > 100 µM | > 100 µM | > 100 µM | > 100 µM |  |  |  |  |  |  |  |  |  | 
3 | Cc1cccc(C2=NC(C)(C)C(C)(C)N=C2c2cccc(C)n2)n1 | > 100 µM | > 100 µM | > 100 µM | > 100 µM | > 100 µM | > 100 µM | > 100 µM | > 100 µM | > 100 µM | > 100 µM |  |  |  |  |  |  |  |  |  | 
4 | Cc1cccc(NC(=O)C(=O)C(C(=O)c2ccccc2F)C2OC(=O)c3ccccc32)c1Cl (stereo not given) | > 100 µM | 80.9 µM | 43.7 µM | > 100 µM |  | > 100 µM | > 100 µM | 53 µM | > 100 µM | > 100 µM |  |  |  |  |  |  |  |  |  | 
5 | CCSC1=C(C)N(C=NC(C)(C)C)CC1 | > 100 µM | > 100 µM | > 100 µM | > 100 µM | > 100 µM | > 100 µM | > 100 µM | > 100 µM | > 100 µM | > 100 µM |  |  |  |  |  |  |  |  |  | 
6 | O=[Se](=O)c1ccccc1.O=[Se](=O)c1ccccc1.[Cu] | 42.1 µM | 33.1 µM | 32.9 µM | 33.5 µM | 32.7 µM | 30.4 µM |  | 14.9 µM | 37.3 µM | 32.5 µM | 27.3 µM | 17.8 µM | 16.6 µM | 18.8 µM | 13.7 µM | 16 µM | 6.77 µM | 18.5 µM | 18 µM | 
7 | NC(=O)C#CC(N)=O | 231 µM and 214 µM and > 100 µM |  | 179 µM and > 100 µM | 30.2 µM and 26.4 µM and 42.8 µM | 90.2 µM and 66.5 µM and > 100 µM | 14.2 µM and 19.5 µM | 36.2 µM | 71.5 µM and 125 µM and > 100 µM | 213 µM and 189 µM and > 100 µM | 63.4 µM and > 81.1 µM |  |  |  |  | 26.5 µM and 22.8 µM and > 100 µM | 4.46 µM and 13.6 µM | 24.4 µM and 38.3 µM and > 100 µM |  |  | 
8 | O=C1Nc2cc([N+](=O)[O-])ccc2NC1/C(=N\Nc1ccccc1)C(O)c1cccc([N+](=O)[O-])c1 (stereo not given) | > 100 µM | > 100 µM | > 100 µM | > 100 µM | > 100 µM | > 100 µM | > 100 µM | > 100 µM | > 100 µM | > 100 µM |  |  |  |  |  |  |  |  |  | 
9 | N#C[S-].[Nd+3].c1ccc(-c2ccccn2)nc1.c1ccc(-c2ccccn2)nc1.c1ccc(-c2ccccn2)nc1 | > 100 µM |  | > 100 µM | 51.5 µM | > 100 µM | 61.2 µM | > 100 µM | 67.1 µM | 42.6 µM | 5.5 µM | 6.93 µM |  | 7.87 µM | 8.47 µM | 37.6 µM | 13.5 µM | 15.7 µM | 11.6 µM | 2.19 µM | 5.05 µM
10 | Cc1cc(S(=O)(=O)O)c(NC(=O)C(=O)C2C=CCS2(=O)=O)cc1Cl (stereo not given) | > 100 µM | > 100 µM | > 100 µM | > 100 µM | > 100 µM | > 100 µM | > 100 µM | > 100 µM | > 100 µM | > 100 µM |  |  |  |  |  |  |  |  |  | 
11 | C/C(=N\NC(N)=S)C(CN(CC(C)C)CC(C)C)C(=O)Nc1ccc(C)cc1C (stereo not given) | > 100 µM | > 100 µM | > 100 µM | > 100 µM | > 100 µM | > 100 µM | > 100 µM | > 100 µM | > 100 µM | > 100 µM |  |  |  |  |  |  |  |  |  | 
12 | CN(C)CCSC(=Nc1ccccc1)N1CCCCC1 | > 100 µM | 38.8 µM |  | 31.3 µM | 29.8 µM | 29.6 µM | 33.1 µM | 26.5 µM | 29.8 µM | 52.5 µM |  |  |  |  |  |  |  |  |  | 
13 | O=C1c2c(nc3ccccc3c2-c2ccccc2)CN1Nc1ccccn1 | > 100 µM | > 100 µM | > 100 µM | > 100 µM | > 100 µM | > 100 µM | > 100 µM | > 76.1 µM | > 100 µM | 51.6 µM |  |  |  |  |  |  |  |  |  | 
14 | C=C1C(=O)OCC2C(C(=O)O)=CC3C(C)C(C)=CC123 (stereo not given) | 79.5 µM | 32.8 µM | 29 µM | 15.1 µM | 31.3 µM | 46 µM |  | 33.8 µM | 36.1 µM | 39.5 µM |  |  |  |  |  |  |  |  |  | 
